ChEMBL document CHEMBL5625167, “In vitro bioevaluation and docking study of dihydrosphingosine and ethambutol analogues against sensitive and multi-drug resistant Mycobacterium tuberculosis” (Eur J Med Chem, 2023)
In brackets after ≈: the same amount, converted by molar mass. Several values for one entry are separate records, joined by “and”; a condition that tells them apart may be missing. Equal values may be shown once.

How the values were obtained:
Staphylococcus aureus = assay: Antibacterial activity against Staphylococcus aureus ATCC 25923 incubated for 18 hrs by resazurin dye based broth microdilution method; assay type: functional
[1] = Cytotoxicity against mouse J774.A1 cells assessed as reduction in cell population incubated for 48 hrs by MTT assay; assay type: toxicity, cell-based
Klebsiella pneumoniae = assay: Antibacterial activity against Klebsiella pneumoniae ATCC 13883 incubated for 18 hrs by resazurin dye based broth microdilution method; assay type: functional
[2] = Cytotoxicity against African green monkey Vero cells assessed as reduction in cell population incubated for 48 hrs by MTT assay; assay type: toxicity, cell-based; settings: chlorocebus sabaeus
[3] = system: Mycobacterium tuberculosis; assay: (§1) Antimycobacterial activity against isoniazid, rifampicin, ethambutol and pyrazinamide sensitive Mycobacterium tuberculosis H37Rv ATCC 25618 assessed as inhibition of bacterial growth incubated for 7 days by resazurin dye based colorimetric method analysis; assay type: functional; settings: H37Rv ATCC 25618, 168 h, time 7 day
[4] = system: Mycolicibacterium smegmatis; assay: Antimycobacterial activity against Mycobacterium smegmatis ATCC607 incubated for 24 hrs by resazurin dye based broth microdilution method; assay type: functional
[5] = system: Mycobacterium tuberculosis; assay: as §1, with “Potency index, ratio of ethambutol MIC to test compound MIC for antimycobacterial” for “Antimycobacterial”; assay type: functional; settings: time 7 day
[6] = system: Mycobacterium tuberculosis; assay: Antimycobacterial activity against Mycobacterium tuberculosis H37Rv ATCC 25618 assessed as fractional inhibitory concentration incubated for 7 days in presence of 2-aminoheptadecan-1-ol by resazurin dye based two-dimensional micro dilution checkerboard assay; assay type: functional; settings: time 7 day
[7] = system: Mycobacterium tuberculosis; assay: Antimycobacterial activity against Mycobacterium tuberculosis H37Rv ATCC 25618 incubated for 7 days by resazurin dye based two-dimensional micro dilution checkerboard assay in presence of 1-(benzyloxy)heptadecan-2-amine; assay type: functional; settings: time 7 day
[8] = system: Mycobacterium tuberculosis; assay: Antimycobacterial activity against Mycobacterium tuberculosis H37Rv ATCC 25618 incubated for 7 days by resazurin dye based two-dimensional micro dilution checkerboard assay in presence of 1-((3,4,5-trimethoxybenzyl)oxy)heptadecan-2-amine; assay type: functional; settings: time 7 day
[9] = Cytotoxicity against human HepG2 cells assessed as reduction in cell population incubated for 48 hrs by MTT assay; assay type: toxicity, cell-based

| SMILES | MIC (Staphylococcus aureus) [µM] | CC50 at 48 h [1] [µM] | MIC (Klebsiella pneumoniae) [µM] | CC50 at 48 h [2] [µM] | MIC [3] | MIC [4] [µM] | Ratio [5] | FIC [6] | FIC [7] | FIC [8] | CC50 at 48 h [9] [µM] |
| --- | --- | --- | --- | --- | --- | --- | --- | --- | --- | --- | --- |
| CCCCCCCCCCCCCCCC(CO)NCCCCCCCCCC (stereo not given) | 512 (≈ 211 µg/mL) | 55.3 | > 512 | 104 | 64 µM (≈ 26.4 µg/mL) | 128 (≈ 52.7 µg/mL) | 6 |  |  |  |  |
| CCCCCCCCCCCCCCCCCC(CO)NCCCC (stereo not given) | 512 (≈ 182 µg/mL) | 31.1 | > 512 | 148 | 32 µM (≈ 11.4 µg/mL) | 512 (≈ 182 µg/mL) | 11 |  |  |  |  |
| NNC(=O)c1ccncc1 [ISONIAZID] |  |  |  |  | 0.91 µM and 0.13 µg/mL |  |  | 0.5 | 0.5 | 0.5 |  |
| CCCCCCCCCCCCCCCCCC(COCc1ccccc1)NCCCCCC (stereo not given) | > 512 | 118 | > 512 | 120 | 64 µM (≈ 30.3 µg/mL) | > 512 | 6 |  |  |  |  |
| CCCCCCCCCCCCCCCC(CO)NCCCC (stereo not given) |  | 23.7 |  | 73.4 | 64 µM (≈ 21 µg/mL) |  | 6 |  |  |  |  |
| CCCCCCCCCCCCCCCC(COCc1ccccc1)NCC (stereo not given) | 16 (≈ 6.23 µg/mL) | 21.6 | > 512 | 26 | 16 µM (≈ 6.23 µg/mL) | 32 (≈ 12.5 µg/mL) | 23 |  |  |  | 237 |
| CCCCCCCCCCCCCCCCCC(CN)NC(=O)OC(C)(C)C (stereo not given) | 16 (≈ 6.38 µg/mL) | 30.5 | > 512 | 17.7 | 16 µM (≈ 6.38 µg/mL) | 8 (≈ 3.19 µg/mL) | 23 |  |  |  | 115 |
| CCCCCCCCCCCCCCCC(CNCCCC)NC(=O)OC(C)(C)C (stereo not given) | 16 (≈ 6.83 µg/mL) | 21.2 | > 512 | 20.3 | 8 µM (≈ 3.41 µg/mL) | 32 (≈ 13.7 µg/mL) | 45 |  |  |  | 136 |
| CCCCCCCCCCCCCCCC(CO)NCC (stereo not given) |  | 22.8 |  | 27.7 | 16 µM (≈ 4.79 µg/mL) |  | 23 |  |  |  |  |
| CCCCc1ccc(CCCCCC(N)CO)cc1 (stereo not given) |  | 10.7 |  | 27.8 | 64 µM (≈ 16.9 µg/mL) |  | 6 |  |  |  |  |
| CCCCCCCCCCCCCCCCCCCC(CN)NC(=O)OC(C)(C)C (stereo not given) |  | 36 |  | 51.4 | 32 µM (≈ 13.7 µg/mL) |  | 11 |  |  |  |  |
| CCCCCCCCCCCC(CO)NCCCC (stereo not given) |  | 21.4 |  | 26 | 32 µM (≈ 8.69 µg/mL) |  | 11 |  |  |  |  |
| Cc1onc(-c2ccccc2)c1C(=O)N[C@@H]1C(=O)N2[C@@H]1SC(C)(C)[C@@H]2C(=O)O [OXACILLIN] | 0.25 (≈ 0.1 µg/mL) |  |  |  |  |  |  |  |  |  |  |
| CCCCCCCCCCCCCCCCCC(N)COCc1ccccc1 (stereo not given) | > 512 | 93.3 | > 512 | 138 | 64 µM (≈ 24.9 µg/mL) | > 512 | 6 |  |  |  |  |
| CCCCCCCCCCCC(CO)N(CC)CC (stereo not given) |  | 17.6 |  | 36.2 | 64 µM (≈ 17.4 µg/mL) |  | 6 |  |  |  |  |
| CCCCc1ccc(CCCCCCCC(N)CO)cc1 (stereo not given) |  | 10.6 |  | 21.2 | 4 µM (≈ 1.17 µg/mL) |  | 90 |  |  |  | 25.4 |
| CCCCCCCCCCCCCCCCCCCC(CNCC)NC(=O)OC(C)(C)C (stereo not given) | 256 (≈ 116 µg/mL) | 4.7 | > 512 | 33.7 | 4 µM (≈ 1.82 µg/mL) | 16 (≈ 7.28 µg/mL) | 90 |  |  |  | 158 |
| CCCCCCCCCCCCCCCCCC(CO)N(CC)CC (stereo not given) | > 512 | 49.5 | > 512 | 85.5 | > 64 µM | > 512 | <5.6 |  |  |  |  |
| CCCCCCCCCCCCCCCC(CNCC)NC(=O)OC(C)(C)C (stereo not given) | ≤ 4 | 19.8 | 512 (≈ 204 µg/mL) | 17.7 | 16 µM (≈ 6.38 µg/mL) | 32 (≈ 12.8 µg/mL) | 23 |  |  |  | 107 |
| CCCCCCCCCCCCCCCC(CO)NCCCCCC (stereo not given) | 128 (≈ 45.5 µg/mL) | 23.8 | > 512 | 113 | 64 µM (≈ 22.8 µg/mL) | 256 (≈ 91 µg/mL) | 6 |  |  |  |  |
| CCCCCCCCCCCCCCCC(CN=[N+]=[N-])NC(=O)OC(C)(C)C (stereo not given) | > 512 | 104 | > 512 | 63.8 | > 64 µM | > 512 | <5.6 |  |  |  |  |
| CCCCCCCCCCCCCCCCCCCC(N)COCc1ccccc1 (stereo not given) | > 512 | 23 | > 512 | 126 | 32 µM (≈ 13.4 µg/mL) | 256 (≈ 107 µg/mL) | 11 |  |  |  |  |
